Our source for the IC50 values is ChEMBL document CHEMBL5604062, “ASAP - ZIKV NS2B-NS3 protease fluorescence dose response” (2024).

The target of the assay is Nonstructural protein 3 (Zika virus, UniProt A0A024AXB9). Briefly: Functional biochemical assay to identify treatments for viral infectious disease that targets Zika NS2B-NS3 protease. Utilizing a direct enzyme activity measurement method, reading the fluorescence intensity is used to characterize the relative potency of inhibitors as IC50. Further details: species or system PRVABC59.
Sequence of Nonstructural protein 3 (A0A024AXB9 whole entry): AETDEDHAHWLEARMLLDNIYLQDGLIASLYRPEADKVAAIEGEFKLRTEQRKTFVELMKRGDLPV
By IC50 is commonly meant the concentration that inhibits the measured activity by half. Higher therefore signals lower potency. Compound `O=C(Nc1cc(Cl)cc([C@H](Nc2cccc(-c3nn[nH]n3)c2)C(=O)N[C@H]2CCOC2)c1)OCc1ccccc1` gave an IC50 above 99.5 µM.
With `NCCCOc1cc(-c2ccc(N)nc2)cc2c1COB2O` the figure was above 99.5 µM.
`CCCn1cc(-c2cc(Cl)cc(NC(=O)OCc3ccccc3)c2)c(C(=O)O)n1` showed an IC50 above 99.5 µM.
Turning to `N#C[C@H](Nc1cccc(-c2nn[nH]n2)c1)c1cc(Cl)cc2[nH]ncc12`, the IC50 is above 99.5 µM.
`O=C(Nc1cccc(-n2nn[nH]c2=O)c1)c1cc(Cl)cc(C2CC2)c1`: the IC50 was above 99.5 µM.
Regarding `O=C(Nc1cc(Cl)cc([C@H](Nc2cccc(-c3nn[nH]n3)c2)C(=O)NC[C@H]2CCCO2)c1)OCc1ccccc1`, the IC50 was above 99.5 µM.
For the compound `O=C(Nc1cc(Cl)cc([C@H]2C[C@@H]2c2cccc(-c3nnn[nH]3)c2)c1)OCc1ccccc1`, the IC50 is 27.6 µM. This lies in the double-digit micromolar range.
With `O=C(Nc1cc(Cl)cc(C(=O)N2CCC(C(=O)O)CC2)c1)OCc1ccccc1` the figure was above 99.5 µM; with `O=C(Nc1cc(Cl)cc(-c2ccn3c(C(=O)O)cnc3c2)c1)OCc1ccccc1`, above 99.5 µM; with `O=C(Nc1cc(Cl)cc(-c2ccc3[nH]nc(C(=O)O)c3c2)c1)OCc1ccccc1`, 17.8 µM.
Take `O=C(Nc1cc(Cl)cc(CNc2cccc(-c3nn[nH]n3)c2)c1)OCc1ccccc1`: the IC50 is 27.3 µM.
`OCC#C[C@H](Nc1ccc(-c2nnn[nH]2)cc1)c1cc(Cl)cc(C2CC2)c1` displayed an IC50 above 99.5 µM.
On to `O=C(Nc1cc(Cl)cc(-c2ccc3cc(C(=O)O)[nH]c3c2)c1)OCc1ccccc1`, for which inhibition was half-maximal at 11.8 µM (IC50).
Compound `NCc1ccc(C(=O)O)c(NC(=O)c2cc(Cl)cc(NC(=O)OCc3ccccc3)c2)c1` registered an IC50 above 99.5 µM.
In the case of `CC(C)CNC(=O)[C@H](Nc1cccc(-c2nnn[nH]2)c1)c1cc(Cl)cc(C2CC2)c1`, the IC50 is above 99.5 µM.
Consider `O=C(Nc1cc(Cl)cc(C(=O)N2CCC[C@H]2C(=O)O)c1)OCc1ccccc1`, for which the IC50 is above 99.5 µM.
In the case of `O=C(Nc1cc(Cl)cc(C(=O)NC2(c3nnn[nH]3)CC2)c1)OCc1ccccc1`, the half-inhibitory concentration (IC50) is above 99.5 µM.
In turn, `O=C(Nc1cc(Cl)cc([C@H]2Nc3ccc(-c4nn[nH]n4)cc3[C@H]3OCCC[C@@H]23)c1)OCc1ccccc1` registered an IC50 above 99.5 µM.
`O=C(Nc1cc(Cl)cc(-c2cc3cc(C(=O)O)ncn3c2)c1)OCc1ccccc1` returned an IC50 above 99.5 µM.
The same measure for `NCc1cccc([C@H](C#CCO)Nc2cc(Cl)cc(NC(=O)OCc3ccccc3)c2)c1`: 15.6 µM.
In turn, `O=C(Nc1cc(Cl)cc(-c2cnn3ccc(C(=O)O)cc23)c1)OCc1ccccc1` yielded an IC50 above 99.5 µM.
`Clc1cccc([C@H](C#Cc2ccccc2)Nc2cccc(-c3nn[nH]n3)c2)c1` showed an IC50 of 16.8 µM.
With `O=C(Nc1cc(Cl)cc(C(=O)Nc2cc(C(=O)O)ccn2)c1)OCc1ccccc1` the figure was above 99.5 µM; with `COCCNC(=O)[C@H](Nc1cccc(-c2nn[nH]n2)c1)c1cc(Cl)cc(NC(=O)OCc2ccccc2)c1`, above 99.5 µM.
Compound `O=C(O)C[C@H]1CCCN1C(=O)c1cc(Cl)cc(NC(=O)OCc2ccccc2)c1` returned an IC50 above 99.5 µM.
In turn, `O=C(Nc1cc(Cl)cc(-c2cccc3c(C(=O)O)cccc23)c1)OCc1ccccc1` registered an IC50 of 23.1 µM.
In turn, `NCc1cc(Br)cc([C@H]2C[C@@H]2c2cc(Cl)cc(NC(=O)OCc3ccccc3)c2)c1` gave a half-maximal inhibitory concentration (IC50) of 11.6 µM.
The same measure for `C[C@H](C(=O)O)N(C)C(=O)c1cc(Cl)cc(NC(=O)OCc2ccccc2)c1`: above 99.5 µM; for `CNC(=O)[C@H](Nc1cccc(-c2nnn[nH]2)c1)c1cc(Cl)cc(C2CC2)c1`: above 99.5 µM; for `CN(C)C(=O)Nc1cccc([C@@H]2C[C@H]2c2cc(Cl)cc(NC(=O)OCc3ccccc3)c2)c1`: above 99.5 µM.
Compound `CNC(=O)[C@H](Nc1ccc(-c2nn[nH]n2)cc1)c1cc(Cl)cc(NC(=O)OCc2ccccc2)c1` came in with an IC50 above 99.5 µM.
Compound `O=C(Nc1cc(Cl)cc(C(=O)Nc2ccnc(C(=O)O)c2)c1)OCc1ccccc1` came in with an IC50 above 99.5 µM.
In turn, `O=C(Nc1cc(Cl)cc(C(=O)N2CC[C@H](C(=O)O)C2)c1)OCc1ccccc1` had an IC50 above 99.5 µM.
